Consider 2 compounds from patent US12484580B2, “Use of alkoxypyrazoles as nitrification inhibitors” (BASF SE, priority 2018, dated 2025).

Data set [1] in a line: volatility of prior-art nitrification inhibitor. Format: physicochemical. To be noted: stated as disadvantageous for long-term applications.
Data set [2] deals with nitrification (soil microbial biomass). As to the kind of experiment: inhibition of nitrification in soil incubation test (ammonium and nitrate content after 0 and 14 days). To be noted: compound at 1% of nitrogen N, 100 g soil, 10 mg ammoniumsulfate-N, 20° C., best obtained NI value. Here is the method:
The compounds of the invention have been tested as follows in terms of the inhibition of nitrification: 100 g soil is filled into 500 ml plastic bottles (e.g. soil sampled from the field) and is moistened to 50% water holding capacity. The soil is incubated at 20° C. for two weeks to activate the microbial biomass. 1 ml test solution, containing the compound in the appropriate concentration (usually 0.3 or 1% of nitrogen N), or DMSO and 10 mg nitrogen in the form of ammoniumsulfate-N is added to the soil and everything mixed well. Bottles are capped but loosely to allow air exchange. The bottles are then incubated at 20° C. for 0 and 14 days. For analysis, 300 ml of a 1% K2SO4-solution is added to the bottle containing the soil and shaken for 2 hours in a horizontal shaker at 150 rpm. Then the whole solution is filtered through a filter (Macherey-Nagel Filter MN 807 ¼). Ammonium and nitrate content is then analyzed in the filtrate in an autoanalyzer at 550 nm (Merck, AA11). The inhibition (NI @ a specified concentration) is calculated as follows: [formula]

In the case of `CCOc1cc(C)[nH]n1` [3-ethoxy-5-methylpyrazole], the volatility result in data set [1] is recorded as “high volatility”.

In the case of `CCOc1[nH]nc(C)c1Cl` [compound 9], the “NI* @ 1%” value in data set [2] worked out at 22.0.
